Source: PubChem BioAssay AID588381 (NMMLSC, 2011)
Activity calls are given as the source filed them.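 How the source made its calls: active means half-maximal concentration at most 10 µM from a sound curve fit, with response shifting 30% or more across doses; inactive means the rest.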

Target: GTPase HRas (Homo sapiens) (UniProt P01112)
Test: H-Ras act fluorescent GTP binding inhibition – biochemical, multiplex bead flow cytometry, round 1, selectivity assay for Cdc42 probe extension project, SAR follow-up (AID 588381)
Settings: GST-H-Ras act beads, Bodipy-FL-GTP binding; for response, lower = inhibition: at 100 µM (top of the series)

Chain of GTPase HRas (Homo sapiens) (P01112 whole entry, looked up): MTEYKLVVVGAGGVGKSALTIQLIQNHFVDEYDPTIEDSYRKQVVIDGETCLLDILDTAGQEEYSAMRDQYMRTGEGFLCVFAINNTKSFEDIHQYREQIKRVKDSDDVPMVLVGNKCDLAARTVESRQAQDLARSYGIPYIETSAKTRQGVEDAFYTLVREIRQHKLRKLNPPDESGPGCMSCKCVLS

EC50 [nM]	response, lower = inhibition	SMILES
82	–	CC1(C)Cc2c(sc(NC(=S)NC(=O)c3ccccc3)c2C(=O)O)CO1
–	inactive	COc1ccc(C2CC(c3ccccc3)=NN2c2ccc(S(N)(=O)=O)cc2)cc1 (centres undefined)
–	inactive	O=C(C#Cc1ccccc1)c1cccc([N+](=O)[O-])c1
–	inactive	NS(=O)(=O)c1ccc(N2N=C(c3ccccc3)CC2c2ccccc2)cc1 (centres undefined)
